From patent US20240218022A1, “ANTI-VISTA MACROCYCLIC PEPTIDES AND COMPOSITIONS” (BRISTOL-MYERS SQUIBB COMPANY, priority 2022, published 2024) come the findings set out here.

Like-named read-outs stand apart in the source and are kept apart here. Starred links: 1 amine or outer side, 2 acyl side, 3 side chain; linkers in the order of their positions; H or OH if unused. Positions of bridges follow the written chain, without caps; N, C: chain ends. Non-standard residues stand in square brackets, D forms with d. Residues, ends and D or L forms follow the SMILES beside them. Phe(4-Me) = Cc1ccc(C[C@H](N)C(=O)O)cc1; γGlu = O=C(O)[C@H](CCC(=O)[*:2])N[*:1]; 2Nal = N[C@@H](Cc1ccc2ccccc2c1)C(=O)O; βAsp = O=C(O)[C@H](CC(=O)[*:2])N[*:1]; Cit = NC(=O)NCCC[C@H](N)C(=O)O; Ahp(2) = CCCCC[C@H](N)C(=O)O; NMeNle = CCCC[C@H](NC)C(=O)O; Tle = CC(C)(C)[C@H](N)C(=O)O; NMeV = CN[C@H](C(=O)O)C(C)C; NHexGly = CCCCCCNCC(=O)O; Nle = CCCC[C@H](N)C(=O)O; Aun = NCCCCCCCCCCC(=O)O; Nva = CCC[C@H](N)C(=O)O; AEEA = NCCOCCOCC(=O)O

The target of the assay is T1, mouse VISTA (mVISTA) (Mus musculus, UniProt Q9D659).
T1 construct: expressed in transfected cells; host or cells: Human embryonic kidney 293T cells
T1 sequence (Q9D659 33-308): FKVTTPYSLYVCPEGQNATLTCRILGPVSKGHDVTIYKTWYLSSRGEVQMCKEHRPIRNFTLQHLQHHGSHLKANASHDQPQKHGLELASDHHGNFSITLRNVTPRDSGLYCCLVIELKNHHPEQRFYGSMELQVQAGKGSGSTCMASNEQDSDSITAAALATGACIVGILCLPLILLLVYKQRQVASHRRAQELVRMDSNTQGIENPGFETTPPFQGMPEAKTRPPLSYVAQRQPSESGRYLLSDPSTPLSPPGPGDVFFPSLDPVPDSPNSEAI
The assay is described as follows: Cell-Based Binding High-Content Assay For mVISTA (HC CBA mVISTA). An outline of the steps:
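293T cells expressing mouse VISTA, with compounds added either after seeding ("no wash") or before seeding and then washed out after 1 h. Biotinylated peptide 2 nM for 30 min at room temperature, then detection with Alexa 647–streptavidin. After fixation with Hoechst stain, plates were high-content imaged; IC50 from four-parameter logistic fit.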

Setting [1] is: cell-based binding high-content assay, mVISTA, read-out: HC CBA miPr ISTA IC50.
The mark [2] stands for this setting: cell-based binding high-content assay, mVISTA, the 16th table, read-out: HC CBA mVISTA IC50.
The mark [3] stands for this setting: 293T cells expressing mouse VISTA, competition with biotinylated peptide (2 nM), read-out: HC CBA mVISTA IC50.

What is called IC50 is the concentration that inhibits the measured activity by half. Consider `CCCCCCN1CC(=O)N[C@@H](Cc2ccc(O)cc2)C(=O)N[C@@H](CCCCC)C(=O)NCC(=O)N[C@@H](CCCNC(=N)N)C(=O)N[C@@H](CC(C)C)C(=O)N[C@@H](CCCCC)C(=O)N2CCC[C@H]2C(=O)N[C@@H](C(C)C)C(=O)N[C@@H](CO)C(=O)N[C@H](C(=O)NCC(=O)NCCOCCOCC(=O)N[C@@H](CC(=O)O)C(=O)NCCOCCOCC(=O)NCCCCCCCCCCC(=O)O)CSCC(=O)N[C@@H](Cc2ccccc2)C(=O)N[C@@H](Cc2ccc(O)cc2)C(=O)N[C@@H](CC(=O)O)C1=O` [compound 2013] ({CH2CO}-FYD[NHexGly]Y[Ahp(2)]GRL[Ahp(2)]PVSCG[AEEA]D[AEEA][Aun]-OH; thioether N-14), for which the IC50 under setting [1] amounted to 0.0255 µM.

Consider `CCCCCCN1CC(=O)N[C@@H](Cc2ccc(O)cc2)C(=O)N[C@@H](CCCC)C(=O)N[C@@H](CC(=O)O)C(=O)N[C@@H](CCCNC(N)=O)C(=O)N(C)[C@@H](CCCC)C(=O)N[C@@H](CCCCC)C(=O)N2CCC[C@H]2C(=O)N[C@@H](C(C)C)C(=O)N[C@@H](CC(=O)O)C(=O)N[C@H](C(=O)N[C@@H](CC(=O)O)C(N)=O)CSCC(=O)N[C@@H](Cc2ccc3ccccc3c2)C(=O)N[C@@H](Cc2ccc(O)cc2)C(=O)N[C@@H](CC(=O)O)C1=O` [Ex 1265] ({CH2CO}-[2Nal]YD[NHexGly]Y[Nle]D[Cit][NMeNle][Ahp(2)]PVDCD-NH2; thioether N-14), for which the concentration for half-maximal inhibition (IC50) under setting [2] stood at 0.009 µM.

As to `CCCCCCN1CC(=O)N[C@@H](Cc2ccc(O)cc2)C(=O)N[C@@H](CC(C)C)C(=O)N[C@@H](CC(N)=O)C(=O)N[C@@H](CCCNC(=N)N)C(=O)N[C@@H](CC(C)C)C(=O)N[C@@H](CCCCC)C(=O)N2CCC[C@H]2C(=O)N[C@@H](C(C)C)C(=O)N[C@@H](CC(=O)O)C(=O)N[C@H](C(=O)NCC(=O)O)CSCC(=O)N[C@@H](Cc2ccccc2)C(=O)N[C@@H](Cc2ccc(O)cc2)C(=O)N[C@@H](CC(=O)O)C1=O` [Example 1011] ({CH2CO}-FYD[NHexGly]YLNRL[Ahp(2)]PVDCG-OH; thioether N-14), under setting [3], the IC50 is 0.0159 µM.

Turning to `CCCCCCN1CC(=O)N[C@@H](Cc2ccc(O)cc2)C(=O)N[C@@H](CCCC)C(=O)N[C@@H](CC(N)=O)C(=O)N[C@@H](CCCNC(N)=O)C(=O)N[C@@H](CC(C)C)C(=O)N[C@@H](CCCCC)C(=O)N2CCC[C@H]2C(=O)N[C@@H](C(C)C)C(=O)N[C@@H](CO)C(=O)N[C@H](C(=O)NCC(=O)NCCOCCOCC(=O)N[C@@H](CC(=O)O)C(=O)NCCOCCOCC(=O)NCCCCCCCCCCC(=O)O)CSCC(=O)N[C@@H](Cc2ccc3ccccc3c2)C(=O)N[C@@H](Cc2ccc(O)cc2)C(=O)N[C@@H](CC(=O)O)C1=O` [compound 2016] ({CH2CO}-[2Nal]YD[NHexGly]Y[Nle]N[Cit]L[Ahp(2)]PVSCG[AEEA]D[AEEA][Aun]-OH; thioether N-14), under setting [1], the IC50 turned out to be 0.019 µM.

Take `CCCCCCN1CC(=O)N[C@@H](Cc2ccc(O)cc2)C(=O)N[C@@H](CCCC)C(=O)N[C@@H](CC(N)=O)C(=O)N[C@@H](CCCNC(=N)N)C(=O)N(C)[C@@H](C(C)C)C(=O)N[C@@H](CCCCC)C(=O)N2CCC[C@H]2C(=O)N[C@@H](C(C)C)C(=O)N[C@@H](CC(=O)O)C(=O)N[C@H](C(=O)NCC(=O)O)CSCC(=O)N[C@@H](Cc2ccc3ccccc3c2)C(=O)N[C@@H](Cc2c[nH]c3ccccc23)C(=O)N[C@@H](CC(=O)O)C1=O` [compound 1260] ({CH2CO}-[2Nal]WD[NHexGly]Y[Nle]NR[NMeV][Ahp(2)]PVDCG-OH; thioether N-14): the IC50 (cell-based binding high-content assay, mVISTA, the 15th table, read-out: HC CBA mVISTA IC50) was 0.0094 µM.

For the compound `CCCCCCN1CC(=O)N[C@@H](Cc2ccc(O)cc2)C(=O)N[C@@H](CCC)C(=O)N[C@@H](CC(N)=O)C(=O)N[C@@H](CCCNC(=N)N)C(=O)N(C)[C@@H](CCCC)C(=O)N[C@@H](CCCCC)C(=O)N2CCC[C@H]2C(=O)N[C@@H](C(C)(C)C)C(=O)N[C@@H](CO)C(=O)N[C@H](C(=O)NCCOCCOCC(=O)N[C@@H](CCC(=O)NCCOCCOCC(=O)NCCCCCCCCCCC(=O)O)C(=O)O)CSCC(=O)N[C@@H](Cc2ccccc2)C(=O)N[C@@H](Cc2c[nH]c3ccccc23)C(=O)N[C@@H](CC(=O)O)C1=O` [compound 2258] ({CH2CO}-FWD[NHexGly]Y[Nva]NR[NMeNle][Ahp(2)]P[Tle]SC[AEEA][γGlu][AEEA][Aun]-OH; thioether N-14), where the note is “read-out: HC CBA mVISTA IC50”, the IC50 was 0.0369 µM.

With `CCCCCCN1CC(=O)N[C@@H](Cc2ccc(O)cc2)C(=O)N[C@@H](CCCC)C(=O)NCC(=O)N[C@@H](CCCNC(N)=O)C(=O)N[C@@H](CC(C)C)C(=O)N[C@@H](CCCCC)C(=O)N2CCC[C@H]2C(=O)N[C@@H](C(C)C)C(=O)N[C@@H](CC(=O)O)C(=O)N[C@H](C(=O)NCC(N)=O)CSCC(=O)N[C@@H](Cc2ccc3ccccc3c2)C(=O)N[C@@H](Cc2ccc(O)cc2)C(=O)N[C@@H](CC(=O)O)C1=O` [Ex 1303] ({CH2CO}-[2Nal]YD[NHexGly]Y[Nle]G[Cit]L[Ahp(2)]PVDCG-NH2; thioether N-14), the IC50 under setting [2] was 0.0088 µM.

With `CCCCCCN1CC(=O)N[C@@H](Cc2ccc(O)cc2)C(=O)N[C@@H](CC(C)C)C(=O)N[C@@H](CC(N)=O)C(=O)N[C@@H](CCCNC(=N)N)C(=O)N(C)[C@@H](CCCC)C(=O)N[C@@H](CCCCC)C(=O)N2CCC[C@H]2C(=O)N[C@@H](C(C)(C)C)C(=O)N[C@@H](CO)C(=O)N[C@H](C(=O)NCC(N)=O)CSCC(=O)N[C@@H](Cc2ccc(C)cc2)C(=O)N[C@@H](Cc2ccc(O)cc2)C(=O)N[C@@H](CC(=O)O)C1=O` [compound 1215] ({CH2CO}-[Phe(4-Me)]YD[NHexGly]YLNR[NMeNle][Ahp(2)]P[Tle]SCG-NH2; thioether N-14), the IC50 (read-out: HC CBA mVISTA IC50) worked out at 0.0167 µM.

For `CCCCCCN1CC(=O)N[C@@H](Cc2ccc(O)cc2)C(=O)N[C@@H](CCCC)C(=O)N[C@@H](CC(N)=O)C(=O)N[C@@H](CCCNC(N)=O)C(=O)N[C@@H](CC(C)C)C(=O)N[C@@H](CCCCC)C(=O)N2CCC[C@H]2C(=O)N[C@@H](C(C)C)C(=O)N[C@@H](CC(=O)O)C(=O)N[C@H](C(=O)NCC(=O)O)CSCC(=O)N[C@@H](Cc2ccccc2)C(=O)N[C@@H](Cc2c[nH]c3ccccc23)C(=O)N[C@@H](CC(=O)O)C1=O` [Example 1363] ({CH2CO}-FWD[NHexGly]Y[Nle]N[Cit]L[Ahp(2)]PVDCG-OH; thioether N-14), where the note is “read-out: HC CBA mVISTA IC50”, the IC50 was determined as 0.004 µM.

On to `CCCCCCN1CC(=O)N[C@@H](Cc2ccc(O)cc2)C(=O)N[C@@H](CC(C)C)C(=O)N[C@@H](CC(N)=O)C(=O)N[C@@H](CCCNC(=N)N)C(=O)N(C)[C@@H](CCCC)C(=O)N[C@@H](CCCCC)C(=O)N2CCC[C@H]2C(=O)N[C@@H](C(C)(C)C)C(=O)N[C@@H](CO)C(=O)N[C@H](C(=O)N[C@@H](CC(=O)NCCOCCOCC(=O)N[C@@H](CC(=O)O)C(=O)NCCOCCOCC(=O)NCCCCCCCCCCC(=O)O)C(=O)O)CSCC(=O)N[C@@H](Cc2ccccc2)C(=O)N[C@@H](Cc2ccc(O)cc2)C(=O)N[C@@H](CC(=O)O)C1=O` [compound 2030] ({CH2CO}-FYD[NHexGly]YLNR[NMeNle][Ahp(2)]P[Tle]SC[βAsp][AEEA]D[AEEA][Aun]-OH; thioether N-14), for which, under setting [1], the IC50 amounted to 0.0228 µM.

`CCCCCCN1CC(=O)N[C@@H](Cc2ccc(O)cc2)C(=O)N[C@@H](CCCC)C(=O)N[C@@H](CC(N)=O)C(=O)N[C@@H](CCCNC(=N)N)C(=O)N(C)[C@@H](CCCC)C(=O)N[C@@H](CCCCC)C(=O)N2CCC[C@H]2C(=O)N[C@@H](C(C)(C)C)C(=O)N[C@@H](CO)C(=O)N[C@H](C(=O)N[C@@H](CC(=O)NCCOCCOCC(=O)N[C@@H](CC(=O)O)C(=O)NCCOCCOCC(=O)NCCCCCCCCCCC(=O)O)C(=O)O)CSCC(=O)N[C@@H](Cc2ccc3ccccc3c2)C(=O)N[C@@H](Cc2ccc(O)cc2)C(=O)N[C@@H](CC(=O)O)C1=O` [compound 2023] ({CH2CO}-[2Nal]YD[NHexGly]Y[Nle]NR[NMeNle][Ahp(2)]P[Tle]SC[βAsp][AEEA]D[AEEA][Aun]-OH; thioether N-14): the IC50 under setting [1] was determined as 0.0412 µM.

Take `CCCCCCN1CC(=O)N[C@@H](Cc2ccc(O)cc2)C(=O)N[C@@H](CCCC)C(=O)N[C@@H](CC(N)=O)C(=O)N[C@@H](CCCNC(N)=O)C(=O)N(C)[C@@H](CCCC)C(=O)N[C@@H](CCCCC)C(=O)N2CCC[C@H]2C(=O)N[C@@H](C(C)C)C(=O)N[C@@H](CO)C(=O)N[C@H](C(=O)NCCOCCOCC(=O)N[C@@H](CC(=O)O)C(=O)NCCOCCOCC(=O)NCCCCCCCCCCC(=O)O)CSCC(=O)N[C@@H](Cc2ccccc2)C(=O)N[C@@H](Cc2c[nH]c3ccccc23)C(=O)N[C@@H](CC(=O)O)C1=O` (stereo in doubt) [compound 2317]: the IC50 (cell-based binding high-content assay, read-out: HC CBA miPrISTA IC50) is 0.0183 µM.

Take `CCCCCCN1CC(=O)N[C@@H](Cc2ccc(O)cc2)C(=O)N[C@@H](CCCNC(=N)N)C(=O)N[C@@H](CC(N)=O)C(=O)N[C@@H](CCCNC(=N)N)C(=O)N[C@@H](CC(C)C)C(=O)N[C@@H](CCCCC)C(=O)N2CCC[C@H]2C(=O)N[C@@H](C(C)C)C(=O)N[C@@H](Cc2c[nH]c3ccccc23)C(=O)N[C@H](C(=O)NCC(=O)O)CSCC(=O)N[C@@H](Cc2ccccc2)C(=O)N[C@@H](Cc2ccc(O)cc2)C(=O)N[C@@H](CC(=O)O)C1=O` [Example 1069] ({CH2CO}-FYD[NHexGly]YRNRL[Ahp(2)]PVWCG-OH; thioether N-14): the IC50 under setting [3] is 0.0483 µM.
